Results taken from US10981926B2 (Janssen Pharmaceutica NV, priority 2016, dated 2021).

Columns and labels:
[1] = target: T1, wild-type Androgen Receptor (AR-wt) (Homo sapiens (Human), UniProt P10275); assay: LNCaP-AR-wt AG reporter assay (agonist mode); assay type: cell-based; conditions: for EC50 / LNCaP-AR-wt AG pEC50: pEC50 = −Log10(EC50 in Molar); for EC50: read-out: LNCaP-AR-wt AG pEC50 (converted); for Emax: read-out: LNCaP-AR-wt AG MAX % Stim
rGABA-gated Cl− channel = assay: GABA-Gated Cl Channel Antagonist Radioligand Binding Assay; set-up: species or system rat; conditions: 10 μM single point, [35S]-TBPS, cerebral cortex membrane homogenates
Procedure: GABA-gated C1 Chanel assays were performed at CEREP according to the following method. Membrane homogenates of cerebral cortex (120 μg protein) were incubated for 120 min at 22° C. with 3 nM […] in the absence or presence of the test compound in a buffer containing 50 mM Na2HPO4/KH2PO4 (pH 7.4) and 500 mM NaCl. Nonspecific binding was determined in the presence of 20 μM picrotoxinin. Following incubation, the samples were filtered rapidly under vacuum through glass fiber filters (GF/B, Packard) presoaked with 0.3% PEI and rinsed several times with ice-cold 50 mM Tris-HCl using a 96-sample cell harvester (Unifilter, Packard). The filters were dried then counted for radioactivity in a scintillation counter (Topcount, Packard) using a scintillation cocktail (Microscint 0, Packard). The results are expressed as a percent inhibition of the control radio ligand specific binding. The standard reference compound is picrotoxinin, which was tested in each experiment at several concentrations to obtain a competition curve from which its IC50 was calculated. In this assay, the following representative compounds disclosed herein had recorded activities at a 10 μM single point concentration in the GABA-gated Cl— Channel Binding Assay.

[2] = target: T2, F876L mutant Androgen Receptor (AR-F876L) (Homo sapiens (Human), UniProt P10275, F877L); assay: LNCaP-AR-F876L AG reporter assay (agonist mode); assay type: cell-based; conditions: for EC50 / LNCaP-AR-F876L AG pEC50: pEC50 = −Log10(EC50 in Molar); for EC50: read-out: LNCaP-AR-F876L AG pEC50 (converted); for Emax: read-out: LNCaP-AR-F876L AG MAX % Stim
T2 sequence (P10275 whole entry F877L): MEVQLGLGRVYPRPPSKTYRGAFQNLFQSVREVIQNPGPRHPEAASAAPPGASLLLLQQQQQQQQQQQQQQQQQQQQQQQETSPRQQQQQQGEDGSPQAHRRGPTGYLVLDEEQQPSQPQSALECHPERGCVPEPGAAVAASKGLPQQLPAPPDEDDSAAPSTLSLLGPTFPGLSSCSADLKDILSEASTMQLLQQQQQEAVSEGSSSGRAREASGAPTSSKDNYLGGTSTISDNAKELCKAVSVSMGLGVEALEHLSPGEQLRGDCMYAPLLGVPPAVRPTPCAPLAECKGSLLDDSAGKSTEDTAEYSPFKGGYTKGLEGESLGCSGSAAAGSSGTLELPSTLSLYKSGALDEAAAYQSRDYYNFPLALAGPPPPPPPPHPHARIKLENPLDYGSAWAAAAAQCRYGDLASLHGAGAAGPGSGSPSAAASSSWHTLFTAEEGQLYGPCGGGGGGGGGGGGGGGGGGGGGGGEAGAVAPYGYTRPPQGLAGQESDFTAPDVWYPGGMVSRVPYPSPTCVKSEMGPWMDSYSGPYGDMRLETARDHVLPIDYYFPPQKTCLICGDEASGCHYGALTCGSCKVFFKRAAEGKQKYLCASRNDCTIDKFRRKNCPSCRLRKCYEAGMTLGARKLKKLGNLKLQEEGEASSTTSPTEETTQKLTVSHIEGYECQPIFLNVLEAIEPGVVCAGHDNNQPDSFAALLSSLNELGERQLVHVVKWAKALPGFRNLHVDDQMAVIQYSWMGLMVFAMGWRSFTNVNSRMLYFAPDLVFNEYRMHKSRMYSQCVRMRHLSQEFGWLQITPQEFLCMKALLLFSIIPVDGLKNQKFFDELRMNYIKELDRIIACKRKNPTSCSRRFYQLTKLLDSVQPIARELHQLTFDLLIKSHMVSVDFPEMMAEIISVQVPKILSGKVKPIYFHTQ

[3] = target: T2, F876L mutant Androgen Receptor (AR-F876L); assay: LNCaP-AR-F876L ANT reporter assay (antagonist mode); assay type: cell-based; conditions: for IC50 / LNCaP-AR-F876L ANT pIC50: pIC50 = −Log10(IC50 in Molar); for IC50: read-out: LNCaP-AR-F876L ANT pIC50 (converted); for Emax: read-out: LNCaP-AR-F876L ANT MAX % Inh
[4] = target: T1, wild-type Androgen Receptor (AR-wt); assay: LNCaP-AR-wt ANT reporter assay (antagonist mode); assay type: cell-based; conditions: for IC50 / LNCaP-AR-wt ANT pIC50: pIC50 = −Log10(IC50 in Molar); for IC50: read-out: LNCaP-AR-wt ANT pIC50 (converted); for Emax: read-out: LNCaP-AR-wt ANT MAX % Inh
[5] = maximum % stimulation (agonist response) over the tested concentration range
[6] = maximum % inhibition of R1881 control response over the tested concentration range
[7] = agonist mode, maximum % stimulation over tested concentration range
[8] = antagonist mode, maximum % inhibition of R1881 control response over tested concentration range

T1 sequence (P10275 whole entry): as the sequence (P10275 whole entry F877L) above, with L877F counted along it

Row | SMILES | EC50 ([1]; agonist mode) [nM] | Emax [1, 5] [%] | rGABA-gated Cl− channel % inh @10 μM (rGABA-gated Cl− channel) [%] | EC50 ([2]; agonist mode) [nM] | Emax [2, 5] [%] | IC50 ([3]; antagonist mode) [nM] | Emax [3, 6] [%] | IC50 ([4]; antagonist mode) [nM] | Emax [4, 6] [%] | further results
1 | N#Cc1ncc(N2C(=O)C3(CCC3)N(c3ccc(O[C@@H]4CCN[C@H](C(F)(F)F)C4)cc3)C2=S)cc1C(F)(F)F (racemic) [Cpd 101, 5-[5-oxo-7-thioxo-8-[4-[[(2SR,4RS)-2-(trifluoromethyl)-4-piperidyl]oxy]phenyl]-6,8-diazaspiro[3.4]octan-6-yl]-3-(trifluoromethyl)pyridine-2-carbonitrile] | > 15100 | 0.3 | 83.9 | > 15100 | 0.7 | 123 | 98.3 | 155 | 102 | –
2 | CN1CC[C@H](Oc2ccc(N3C(=S)N(c4cnc(C#N)c(C(F)(F)F)c4)C(=O)C34CCC4)cc2)[C@H](F)C1 (racemic) [Cpd 102] | > 15100 | 0.4 | 52.1 | > 15100 | 0.3 | 49 | 99.6 | 79.4 | 99.7 | –
3 | N#Cc1ncc(N2C(=O)C3(CCC3)N(c3ccc(O[C@@H]4CCN[C@@H](C(F)(F)F)C4)cc3)C2=S)cc1C(F)(F)F (racemic) [Cpd 106, 5-[5-oxo-7-thioxo-8-[4-[[(2RS,4RS)-2-(trifluoromethyl)-4-piperidyl]oxy]phenyl]-6,8-diazaspiro[3.4]octan-6-yl]-3-(trifluoromethyl)pyridine-2-carbonitrile] | > 15100 | 0.1 | 87.1 | > 15100 | 0.7 | 219 | 99.7 | 174 | 102 | –
4 | CN1CCC(Oc2ccc(N3C(=S)N(c4cnc(C#N)c(C(F)(F)F)c4)C(=O)C34CCC4)cc2)CC1=O (racemic) [Cpd 189, (R,S)-5-[8-[4-[(1-methyl-2-oxo-4-piperidyl)oxy]phenyl]-5-oxo-7-thioxo-6,8-diazaspiro[3.4]octan-6-yl]-3-(trifluoromethyl)pyridine-2-carbonitrile] | > 15100 | – | 90.4 | > 15100 | – | 81.3 | – | 69.2 | – | Emax [1, 7]: 0%; Emax [2, 7]: 1.7%; Emax [3, 8]: 99.1%; Emax [4, 8]: 100%
5 | N#Cc1ncc(N2C(=O)C3(CCC3)N(c3ccc(OC4CCNC(=O)C4)cc3)C2=S)cc1C(F)(F)F (racemic) [Cpd 195, (R,S)-5-[5-oxo-8-[4-[(2-oxo-4-piperidyl)oxy]phenyl]-7-thioxo-6,8-diazaspiro[3.4]octan-6-yl]-3-(trifluoromethyl)pyridine-2-carbonitrile] | > 15100 | – | 94.2 | > 15100 | – | 174 | – | 186 | – | Emax [1, 7]: 0%; Emax [2, 7]: 0.6%; Emax [3, 8]: 100%; Emax [4, 8]: 102%
6 | N#Cc1ncc(N2C(=O)C3(CCC3)N(c3ccc(O[C@H]4CCN[C@H](CO)C4)cc3)C2=S)cc1C(F)(F)F (racemic) [Cpd 222, 5-[8-(2SR,4SR)[4-[[2-(hydroxymethyl)-4-piperidyl]oxy]phenyl]-5-oxo-7-thioxo-6,8-diazaspiro[3.4]octan-6-yl]-3-(trifluoromethyl)pyridine-2-carbonitrile] | > 15100 | – | 61.4 | > 15100 | – | 81.3 | – | 129 | – | Emax [1, 7]: 2.3%; Emax [2, 7]: 0.2%; Emax [3, 8]: 99.6%; Emax [4, 8]: 99.6%
7 | CN1CCC(Oc2ccc(N3C(=S)N(c4cnc(C#N)c(C(F)(F)F)c4)C(=O)C34CCC4)cn2)CC1 [Cpd 1, 5-[8-[6-[(1-methyl-4-piperidyl)oxy]-3-pyridyl]-5-oxo-7-thioxo-6,8-diazaspiro[3.4]octan-6-yl]-3-(trifluoromethyl)pyridine-2-carbonitrile] | > 15100 | -0.1 | 6.3 | > 15100 | 0.1 | – | 101 | – | 101 | LNCaP-AR-F876L ANT pIC50 ([3]; antagonist mode): 7.07; LNCaP-AR-wt ANT pIC50 ([4]; antagonist mode): 6.94
8 | Cc1cc(N2C(=O)C3(CCC3)N(c3ccc(OC4CCN(C)CC4)nc3)C2=S)cnc1C#N [Cpd 2, 3-methyl-5-[8-[6-[(1-methyl-4-piperidyl)oxy]-3-pyridyl]-5-oxo-7-thioxo-6,8-diazaspiro[3.4]octan-6-yl]pyridine-2-carbonitrile] | > 15100 | 0.5 | 1.6 | > 15100 | 0.2 | 123 | 99.9 | 245 | 101 | –
9 | COc1cc(N2C(=O)C3(CCC3)N(c3ccc(OC4CCN(C)CC4)cc3)C2=S)cnc1C#N [Cpd 23, 3-methoxy-5-[8-[4-[(1-methyl-4-piperidyl)oxy]phenyl]-5-oxo-7-thioxo-6,8-diazaspiro[3.4]octan-6-yl]pyridine-2-carbonitrile] | > 15100 | 0.4 | 4.8 | > 15100 | 0.4 | – | 101 | – | 102 | LNCaP-AR-F876L ANT pIC50 ([3]; antagonist mode): 6.67; LNCaP-AR-wt ANT pIC50 ([4]; antagonist mode): 6.52
10 | CN1CCC(Oc2ccc(N3C(=S)N(c4cnc(C#N)c(Cl)c4)C(=O)C34CCC4)cc2)CC1 [Cpd 24, 3-chloro-5-[8-[4-[(1-methyl-4-piperidyl)oxy]phenyl]-5-oxo-7-thioxo-6,8-diazaspiro[3.4]octan-6-yl]pyridine-2-carbonitrile] | > 15100 | 0.6 | 25.4 | > 15100 | 0.5 | 83.2 | 101 | 170 | 101 | –
11 | N#Cc1ncc(N2C(=O)C3(CCC3)N(c3ccc(O[C@H]4C[C@H]5CC[C@@H](C4)N5)cc3)C2=S)cc1C(F)(F)F [Cpd 29, 5-[8-[4-[[(1R,3r, 5S)-8-azabicyclo[3.2.1]octan-3-yl]oxy]phenyl]-5-oxo-7-thioxo-6,8-diazaspiro[3.4]octan-6-yl]-3-(trifluoromethyl)pyridine-2-carbonitrile] | – | 1.5 | 39.9 | – | 3.4 | – | 101 | – | 91.5 | LNCaP-AR-wt AG pEC50 ([1]; agonist mode): <4.82; LNCaP-AR-F876L AG pEC50 ([2]; agonist mode): <4.82; LNCaP-AR-F876L ANT pIC50 ([3]; antagonist mode): 6.40; LNCaP-AR-wt ANT pIC50 ([4]; antagonist mode): 6.05
12 | N#Cc1ncc(N2C(=O)C3(CCC3)N(c3ccc(OC4CCCNCC4)cc3)C2=S)cc1C(F)(F)F (stereo not drawn) [Cpd 30, 5-[8-[4-(azepan-4-yloxy)phenyl]-5-oxo-7-thioxo-6,8-diazaspiro[3.4]octan-6-yl]-3-(trifluoromethyl)pyridine-2-carbonitrile] | – | – | 53.6 | – | – | 91.2 | – | 708 | – | LNCaP-AR-wt AG pEC50 ([1]; agonist mode): <4.82; LNCaP-AR-wt AG MAX % Stim [1, 5]: 0.3%; LNCaP-AR-F876L AG pEC50 ([2]; agonist mode): <4.82; LNCaP-AR-F876L AG MAX % Stim [2, 5]: 0.3%; LNCaP-AR-F876L ANT MAX % Inh [3, 6]: 100.6%; LNCaP-AR-wt ANT MAX % Inh [4, 6]: 99.7%
13 | CCOC(=O)N1CCN(C(=O)c2ccc(N3C(=S)N(c4cnc(C#N)c(C(F)(F)F)c4)C(=O)C34CCC4)cc2)CC1 [Cpd 31, ethyl 4-[4-[6-[6-cyano-5-(trifluoromethyl)-3-pyridyl]-5-oxo-7-thioxo-6,8-diazaspiro[3.4]octan-8-yl]benzoyl]piperazine-1-carboxylate] | > 15100 | 0.3 | 79.0 | > 15100 | 0.1 | 617 | 87.1 | 1290 | 80.3 | –
